From US20090246169A1, “INDOLOPYRIDINES AS EG5 KINESIN MODULATORS” (priority 2006, published 2009) come the findings set out here.

Structures are written as SMILES. Some results are limits rather than exact numbers.

This test has as its system RKO p21 colon adenocarcinoma cells, uninduced (proliferating). Description: Alamar Blue cell viability assay, RKO p21 uninduced (proliferating). The test is classed as cell-based. The note with it: Homo sapiens; anti-proliferative/cytotoxic activity, 72 hours, without Ponasterone A; read-out: −log EC50 [mol/l] RKO p21 uninduced (proliferating) (converted). On the procedure:
The anti-proliferative/cytotoxic activity of the compounds described herein can be tested on subclones of RKO human colon adenocarcinoma cells (Schmidt et al., Oncogene 19, 2423-2429; 2000) using the Alamar Blue cell viability assay (described in O'Brien et al. Eur J Biochem 267, 5421-5426, 2000). The compounds are dissolved as 10 mM solutions in DMSO and subsequently diluted in semi-logarithmic steps. DMSO dilutions are further diluted 1:100 into Dulbecco's modified Eagle's medium (DMEM) containing 10% fetal calf serum to a final concentration twice as much as the final concentration in the test. RKO subclones are seeded into 96 well flat bottom plates at a density of 4000 cells per well in a volume of 50 μl per well. 24 hours after seeding the 50 μl each of the compound dilutions in DMEM medium are added into each well of the 96 well plate. Each compound dilution is tested as triplicates. Wells containing untreated control cells are filled with 50 μl DMEM medium containing 1% DMSO. The cells are then incubated with the substances for 72 hours at 37° C. in a humidified atmosphere containing 5% carbon dioxide. To determine the viability of the cells, 10 μl of an Alamar Blue solution (Biosource) are added and the fluorescence is measured at an extinction of 544 nm and an emission of 590 nm. For the calculation of the cell viability the emission value from untreated cells is set as 100% viability and the emission rates of treated cells are set in relation to the values of untreated cells. Viabilities are expressed as % values. The Graphpad Prism program is used for the calculation of EC50 values for anti-proliferative/cytotoxic activity out of the obtained dose-response curves.
To determine the cell cycle specific mode of action, subclones of RKO colon adenocarcinoma cells (RKOp21 or RKOp27 as described by Schmidt et al. in Oncogene 19, 2423-2429; 2000) are seeded into 96 well flat bottom plates at a density of 16000 cells per well in a volume of 50 μl per well in DMEM growth medium with 10% FCS containing 10 μM Ponasterone A. 24 hours after seeding the 50 μl each of the compound dilutions in DMEM medium are added into each well of the 96-well plate. Each compound dilution is tested as triplicates. Wells containing untreated control cells are filled with 50 μl DMEM medium containing 1% DMSO. The cells are then incubated with the substances for 72 hours at 37° C. in a humidified atmosphere containing 5% carbon dioxide. To determine the viability of the cells, 10 μl of an Alamar Blue solution (Biosource) are added and the fluorescence is measured at an extinction of 544 nm and an emission of 590 nm. For the calculation of the cell viability the emission value from untreated cells is set as 100% viability and the emission rates of treated cells are set in relation to the values of untreated cells. Viabilities are expressed as % values. The Graphpad Prism program (GraphPad Software, Inc) is used for the calculation of EC50 values out of the obtained dose-response curves. Viability is compared of proliferating cells grown in the absence of the inducer Ponasterone A, versus viability of cells arrested by the expression of ectopic p27Kip1 induced by Ponasterone A.
Representative values for anti-proliferation/cytotoxicity [measured as −log EC50 (mol/l)] determined in the aforementioned assays follow from the following tables B1 and B2, in which the numbers of the compounds correspond to the numbers of the examples.
In general terms: The colour change of resazurin is a common sign of viable cells or microbes.
On to `COc1ccc2[nH]c3c(c2c1)C[C@@]1(C)C(=O)N(CCN2CC=CCC2)C(=O)N1[C@@H]3c1ccccc1` (racemic) [Example 33, (3aSR, 10RS)-2-[2-(3,6-Dihydro-2H-pyridin-1-yl)-ethyl]-6-methoxy-3a-methyl-10-phenyl-3a,4,9,10-tetra-hydro-2,9,10a-triaza-cyclo-penta[b]fluorene-1,3-dione], for which the EC50 is no more than 1000 nM.

`COc1ccc2[nH]c3c(c2c1)C[C@@]1(C)C(=O)N(CCN2CCN(C)CC2)C(=O)N1[C@@H]3c1ccccc1` (racemic) [Example 34, (3aSR, 10RS)-6-Methoxy-3a-methyl-2-[2-(4-methyl-piperazin-1-yl)-ethyl]-10-phenyl-3a,4,9,10-tetrahydro-2,9,10a-triaza-cyclopenta[b] fluorene-1,3-dione]: the EC50 was no more than 1000 nM.

For the compound `COc1ccc2[nH]c3c(c2c1)C[C@@]1(C)C(=O)N(CCNCC(C)C)C(=O)N1[C@@H]3c1ccccc1` (racemic) [Example 35, (3aSR, 10RS)-2-(2-Isobutyl-amino-ethyl)-6-methoxy-3a-methyl-10-phenyl-3a,4,9,10-tetrahydro-2,9,10a-triaza-cyclopenta[b]fluorene-1,3-dione], the EC50 is no more than 1000 nM.

On to `CCN(CCO)CCN1C(=O)N2[C@H](c3ccccc3)c3[nH]c4ccc(OC)cc4c3C[C@@]2(C)C1=O` (racemic) [Example 36, (3aSR, 10RS)-2-{2-[Ethyl-(2-hydroxy-ethyl)-amino]-ethyl}-6-methoxy-3a-methyl-10-phenyl-3a,4,9,10-tetra-hydro-2,9,10a-triaza-cyclo-penta[b]fluorene-1,3-dione], for which the EC50 was no more than 1000 nM.

For the compound `C=CCN(C)CCN1C(=O)N2[C@H](c3ccccc3)c3[nH]c4ccc(OC)cc4c3C[C@@]2(C)C1=O` (racemic) [Example 37, (3aSR, 10RS)-2-[2-(Allyl-methyl-amino)-ethyl]-6-methoxy-3a-methyl-10-phenyl-3a,4,9,10-tetrahydro-2,9,10a-triaza-cyclopenta [b]fluorene-1,3-dione], the EC50 was no more than 1000 nM.

Turning to `COc1ccc2[nH]c3c(c2c1)C[C@@]1(C)C(=O)N(CCN(C)C(C)C)C(=O)N1[C@@H]3c1ccccc1` (racemic) [Example 39, (3aSR, 10RS)-2-[2-(Isopropyl-methyl-amino)-ethyl]-6-methoxy-3a-methyl-10-phenyl-3a,4,9,10-tetra-hydro-2,9,10a-triaza-cyclo-penta[b]fluorene-1,3-dione], the EC50 is no more than 1000 nM.

As to `COc1ccc2[nH]c3c(c2c1)C[C@@]1(C)C(=O)N(CCN2CCOCC2)C(=O)N1[C@@H]3c1ccccc1` (racemic) [Example 40, (3aSR, 10RS)-6-Methoxy-3a-methyl-2-(2-morpholin-4-yl-ethyl)-10-phenyl-3a,4,9,10-tetrahydro-2,9,10a-triaza-cyclopenta[b]fluorene-1,3-dione], the EC50 was no more than 1000 nM.

As to `CCN(CC)CCN1C(=O)N2[C@H](c3ccccc3)c3[nH]c4ccc(OC)cc4c3C[C@@]2(C)C1=O` (racemic) [Example 41, (3aSR, 10RS)-2-(2-Diethyl-amino-ethyl)-6-methoxy-3a-methyl-10-phenyl-3a,4,9,10-tetrahydro-2,9,10a-triaza-cyclopenta[b]fluorene-1,3-dione], the EC50 is no more than 1000 nM.

Regarding `COc1ccc2[nH]c3c(c2c1)C[C@@]1(C)C(=O)N(CCN2CCCCCC2)C(=O)N1[C@@H]3c1ccccc1` (racemic) [Example 43, (3aSR, 10RS)-2-(2-Azepan-1-yl-ethyl)-6-methoxy-3a-methyl-10-phenyl-3a,4,9,10-tetrahydro-2,9,10a-triaza-cyclopenta[b]fluorene-1,3-dione], the EC50 is no more than 1000 nM.

For the compound `CCNCCCN1C(=O)N2[C@H](c3ccccc3)c3[nH]c4ccc(OC)cc4c3C[C@@]2(C)C1=O` (racemic) [Example 44, (3aSR, 10RS)-2-(3-Ethyl-amino-propyl)-6-methoxy-3a-methyl-10-phenyl-3a,4,9,10-tetrahydro-2,9,10a-triaza-cyclopenta[b]fluorene-1,3-dione], the EC50 was no more than 1000 nM.
